According to ChEMBL document CHEMBL1129188, “Structure activity relationships of tetrahydrocannabinol analogues on human cannabinoid receptors” (Bioorg Med Chem Lett, 1996):

Tests used:
Cannabinoid receptor 2 = Cannabinoid receptor 2 (Homo sapiens, UniProt P34972); experiment: Binding affinity against human Cannabinoid receptor 2 by using radioligand ([3H]CP-55940) assay.
Cannabinoid receptor 1 [1] = target: T1, Cannabinoid receptor 1 (Homo sapiens, UniProt P21554); experiment: Binding affinity against human cannabinoid receptor by using radioligand ([3H]CP-55940) assay.
[2] = target: Cannabinoid receptor (Homo sapiens) (UniProt P34972+P21554); experiment: Ratio of binding affinity of hCB1 to hCB2 was reported; type: protein assay
Cannabinoid receptor 1 [3] = target: T1, Cannabinoid receptor 1; experiment: Compound was evaluated for binding affinity against human cannabinoid receptor by using radioligand ([3H]CP-55940) assay; second determination
Cannabinoid receptor 1 [4] = target: T1, Cannabinoid receptor 1; experiment: Compound was evaluated for binding affinity against human cannabinoid receptor by using radioligand ([3H]CP-55940) assay; first determination

Sequence of Cannabinoid receptor 2 (P34972 whole entry): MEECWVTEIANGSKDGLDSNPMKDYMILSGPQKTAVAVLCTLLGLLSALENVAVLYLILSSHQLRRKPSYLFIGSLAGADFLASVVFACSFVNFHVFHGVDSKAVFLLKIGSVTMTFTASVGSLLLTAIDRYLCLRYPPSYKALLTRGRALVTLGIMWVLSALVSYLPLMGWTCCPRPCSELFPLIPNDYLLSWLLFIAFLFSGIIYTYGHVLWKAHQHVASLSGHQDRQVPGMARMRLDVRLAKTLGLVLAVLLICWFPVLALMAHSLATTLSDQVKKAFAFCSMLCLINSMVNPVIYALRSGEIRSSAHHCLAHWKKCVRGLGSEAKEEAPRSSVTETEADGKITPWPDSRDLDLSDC
T1 sequence (P21554 whole entry): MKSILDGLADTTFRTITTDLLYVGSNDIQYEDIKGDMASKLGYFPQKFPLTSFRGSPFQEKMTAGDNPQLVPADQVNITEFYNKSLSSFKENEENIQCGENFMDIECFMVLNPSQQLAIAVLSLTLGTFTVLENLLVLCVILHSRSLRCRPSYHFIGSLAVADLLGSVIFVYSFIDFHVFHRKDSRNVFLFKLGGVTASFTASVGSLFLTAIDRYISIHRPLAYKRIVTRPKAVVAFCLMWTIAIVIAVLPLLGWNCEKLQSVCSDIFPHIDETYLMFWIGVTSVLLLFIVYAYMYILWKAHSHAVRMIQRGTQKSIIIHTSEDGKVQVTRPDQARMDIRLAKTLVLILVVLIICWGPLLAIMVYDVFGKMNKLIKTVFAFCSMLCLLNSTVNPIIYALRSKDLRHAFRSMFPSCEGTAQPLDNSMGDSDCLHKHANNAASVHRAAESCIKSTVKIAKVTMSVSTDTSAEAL
Sequence of Cannabinoid receptor (Homo sapiens) (P21554 whole entry, looked up): as the sequence (P21554 whole entry) above
Sequence of Cannabinoid receptor (Homo sapiens) (P34972 whole entry, looked up): as the sequence (P34972 whole entry) above

Compound	Ki (Cannabinoid receptor 2) [nM]	Ki (Cannabinoid receptor 1 [1]) [nM]	Ratio [2]	Ki (Cannabinoid receptor 1 [3]) [nM]	Ki (Cannabinoid receptor 1 [4]) [nM]
CCCCCCC(C)(C)c1cc(O)c2c(c1)OC(C)(C)[C@@H]1CC=C(C)C[C@@H]21	0.49	0.83	1.7		
CCCCCCC(C)(C)c1ccc2c(c1)OC(C)(C)[C@@H]1CC=C(C)C[C@@H]21	20.8	250	12		
CCCCCCC(C)(C)c1ccc(-c2cc(C)cc(C)c2)cc1	2140	> 30000	> 14		
CCCCCCC(C)(C)c1cc(OC)c2c(c1)OC(C)(C)[C@@H]1CC=C(C)C[C@@H]21	20	15800	793		
CCCCCCC(C)(C)c1cc(O)c2c(c1)OC(C)(C)[C@@H]1CC=C(C=O)C[C@@H]21	2.61	2.24	0.9		
CCCCCCC(C)(C)c1ccc(-c2cc(C)cc(C)c2)c(O)c1	4.14	12.5	3		
CCCCCCC(C)(C)c1cc2c(c(OP(=O)(OCC)OCC)c1)[C@@H]1CC(C)=CC[C@H]1C(C)(C)O2	442		> 45	> 20000	> 20000
CCCCCCC(C)(C)c1cc(OC)c(-c2cc(C)cc(C)c2)c(OC)c1	433	> 20000	> 46		
C=C1CC[C@@H]2[C@@H](C1)c1c(O)cc(C(C)(C)CCCCCC)cc1OC2(C)C	0.58	1.82	3.1		
CCCCCCC(C)(C)c1cc(O)c(-c2cc(C)cc(C)c2)c(O)c1	2	79.1	40		
CCCCCCC(C)(C)c1cc(O)c([C@@H]2C=C(C)C3C[C@H]2C3(C)C)c(O)c1	41.2	350	9		
C=C1CC[C@@H]2[C@@H](C1)c1c(OC)cc(C(C)(C)CCCCCC)cc1OC2(C)C	19.4	> 20000	> 1000		
CCCCCCC(C)(C)c1cc(OC)c2c(c1)OC(C)(C)[C@@H]1CCC(=O)C[C@@H]21	132	621	4.7		
CCCCCCC(C)(C)c1cc(O)c2c(c1)OC(C)(C)[C@H]1CC=C(C=O)C[C@H]21	119	97	0.8		
CCCCCCC(C)(C)c1cc(O)c2c(c1)OC(C)(C)[C@@H]1CCC(=O)C[C@@H]21 [NABILONE]	1.84	2.19	1.2		
CCCCCCC(C)(C)c1cc(O)c2c(c1)OC(C)(C)[C@H]1CC=C(C)C[C@H]21	28.8	38.8	1.3		
